Data taken from US5348956A, “Substituted cyclopropylamino-1,3,5-triazines” (UCB S.A., priority 1991, dated 1994).

How the values were obtained:
[1] = multiple-trial passive avoidance: learning; type: in vivo, male Sprague-Dawley rats
Protocol: To evaluate whether a compound can promote learning, the following test is carried out. […] Rats which remain on the mat for this period have acquired the avoidance reflex and are replaced in their original cage without receiving the electric shock. […] The results obtained in the test used to evaluate learning are given in columns 3 and 4. […] The results were analyzed by the Student test.

serotonergic activity = experiment: "wet dog shake" (WDS) behavior, serotonergic activity; type: in vivo, male Sprague-Dawley rats; conditions: counted over 30 minutes
Protocol: A decrease in serotonergic activity has been correlated with the occurrence of affective disorders, such as depression and anxiety. […] The test is carried out in the morning on male Sprague-Dawley rats (±180 g), divided the previous day into groups of 8 animals in residence cages. The cage used for the tests is a transparent enclosure of 12×24×30 cm in height, the floor of which is covered with a layer of sand. The compounds to be tested, dissolved either in physiological salt solution or in a citrate buffer of pH 5, are administered intraperitoneally in a different dose for each group treated. The control groups receive an intraperitoneal injection of the same vehicle (either physiological salt solution or citrate buffer). […] The mean values of the results are calculated and analyzed statistically by the Mann-Whitney method. The mean values of the number of shakes obtained for the compounds according to the invention administered intraperitoneally at the doses indicated (in mg/kg) are given in Table V below.

PMN granulocytes = experiment: inhibition of the stimulation of PMN granulocytes (chemiluminescence); type: cell-based, Rat; conditions: Rattus norvegicus; 10^-6 mole/l; FMLP 3.2×10^-7 mole/liter; read-out: Residual chemiluminescence
Source text: Polymorphonuclear neutrophil granulocytes (PMN) are cells which are mobilized during inflammatory phenomena and which can be stimulated by various compounds, such as, for example, formylmethionyl-leucylphenylalanine (FMLP) or prostaglandins E (PGE1). The PMN granulocytes respond to these extracellular stimuli with an activation of the oxygen metabolism with release of toxic oxygenated metabolites. An excessive response of the PMN granulocytes may be the cause of a painful inflammation and is also accompanied by a reduction in the level of cyclic adenosine monophosphate (cAMP) in these granulocytes. Consequently, compounds which inhibit the respiratory burst of PMN granulocytes or which increase the level of cAMP can be regarded as very important in the treatment of arthritis and asthma. […] Rat PMN granulocytes (5×10^6 /ml) are preincubated in a phosphate buffer ([…], pH 7.4), containing luminol at a concentration of 10^-5 mole per liter, for 15 minutes at 37° C. and then for 5 minutes in the presence of the compound to be treated at a concentration of 10^-6 mole/liter. […] The luminescence which results from the stimulation is measured by means of an LKB 1251 luminometer according to the method of […] and […] (Infection and Immunology, 37, (1982), 34-39). An experimental cycle lasts 38 seconds. The reaction is repeated 9 times for each compound to be tested and the average of the results obtained is calculated.

cAMP in PMN granulocytes = experiment: increase in the level of cAMP in PMN granulocytes; type: cell-based, Rat; conditions: […]10^-6 mole per liter; PGE1 10^-6 mole/liter; control 4.3
Source text: Polymorphonuclear neutrophil granulocytes (PMN) are cells which are mobilized during inflammatory phenomena and which can be stimulated by various compounds, such as, for example, formylmethionyl-leucylphenylalanine (FMLP) or prostaglandins E (PGE1). The PMN granulocytes respond to these extracellular stimuli with an activation of the oxygen metabolism with release of toxic oxygenated metabolites. An excessive response of the PMN granulocytes may be the cause of a painful inflammation and is also accompanied by a reduction in the level of cyclic adenosine monophosphate (cAMP) in these granulocytes. […] The reaction is then stopped by addition of 1 ml of propanol. After centrifugation at 15,000 g for 3 minutes, the supernatant is recovered and evaporated and the amount of cAMP in the residue is determined by radioimmunological assay according to the process recommended by the supplier of the reagent used for this purpose (Amersham). A control test is carried out under the same conditions, but in the absence of the compound to be tested.

Compound	activity at 1 µM (PMN granulocytes) [%]	Amount of cAMP produced (cAMP in PMN granulocytes) [picomoles per 10^7 cells]	Average number of shakes (serotonergic activity; 1.0 mg/kg i.p.) [shakes]	other results
CCCc1nc(NC2CC2)nc(N2CC3CCC(C2)O3)n1 [Compound 11]	44	16.2		Learning, average number of trials, group 2 ([1]; 3.3 mg/kg i.p.): 1.8 trials; Average number of shakes (serotonergic activity; 1.1 mg/kg i.p.): 4.3 ± 1.4 shakes
OC1CN(c2nc(NC3CC3)nc(C3CC3)n2)C1 [Compound 13]	79			Learning, average number of trials, group 2 ([1]; 2.5 mg/kg i.p.): 2.1 trials; Average number of shakes (serotonergic activity; 2.5 mg/kg i.p.): 5.6 ± 1.8 shakes
CC(C)c1nc(NC2CC2)nc(N2CC3CCC(C2)O3)n1 [Compound 12]	36	16.8		Learning, average number of trials, group 2 ([1]; 1.0 mg/kg i.p.): 1.7 trials
CCc1nc(NC2CC2)nc(N2CCOCC2)n1 [Compound 2]	68		10.0 ± 3.5	Learning, average number of trials, group 2 ([1]; 1.0 mg/kg i.p.): 2.7 trials
CCCc1nc(NC2CC2)nc(N2CCC(O)CC2)n1 [Compound 5]	74	11.6		Learning, average number of trials, group 2 ([1]; 2.8 mg/kg i.p.): 2.3 trials; Average number of shakes (serotonergic activity; 2.8 mg/kg i.p.): 8.4 ± 1.6 shakes
OCCN(CCO)c1nc(NC2CC2)nc(C2CC2)n1 [Compound 7]	54	15.8		Learning, average number of trials, group 2 ([1]; 2.8 mg/kg i.p.): 1.9 trials; Average number of shakes (serotonergic activity; 2.8 mg/kg i.p.): 7.9 ± 1.8 shakes
C1CC(c2nc(NC3CC3)nc(N3CCOCC3)n2)C1 [Compound 4, 2-cyclobutyl-4-cyclopropylamino-6-morpholino-1,3,5-triazine]	45	17.7		Learning, average number of trials, group 2 ([1]; 2.8 mg/kg i.p.): 1.9 trials; Average number of shakes (serotonergic activity; 2.8 mg/kg i.p.): 10.6 ± 4.3 shakes
C1CN(c2nc(NC3CC3)nc(C3CC3)n2)CCO1.Cl [Compound 3, 2-cyclopropyl-4-cyclopropylamino-6-morpholino-1,3,5-triazine hydrochloride]	39	23.2	11.9 ± 2.7	Learning, average number of trials, group 2 ([1]; 1.0 mg/kg i.p.): 1.9 trials; Average number of shakes (serotonergic activity; 0.3 mg/kg i.p.): 5.1 ± 1.0 shakes
CCCc1nc(NC2CC2)nc(N(CCO)CCO)n1 [Compound 6]	55	14.6	1.9 ± 0.5	
CCCc1nc(NC2CC2)nc(N2CCOCC2)n1 [Compound 1, 2-Cyclopropylamino-4-morpholino-6-n-propyl-1,3,5-triazine]	47	21.0	7.8 ± 1.6	Learning, average number of trials, group 2 ([1]; 3.0 mg/kg i.p.): 1.4 trials
COC1CN(c2nc(NC3CC3)nc(C3CC3)n2)C1 [Compound 14]	51			Learning, average number of trials, group 2 ([1]; 2.6 mg/kg i.p.): 1.5 trials; Average number of shakes (serotonergic activity; 0.8 mg/kg i.p.): 2.1 ± 0.7 shakes
C1CC1Nc1nc(C2CC2)nc(N2CC3CCC(C2)O3)n1 [Compound 16]	42		10.6 ± 1.8	Learning, average number of trials, group 2 ([1]; 3.25 mg/kg i.p.): 2.2 trials
